Results from US4958010A, “Epipodophyllotoxin glucoside lactam derivatives” (Bristol-Myers Company, priority 1989, dated 1990).
Values joined by “and” are separate entries in the source; they are usually repeats but may differ in a detail not shown here. Equal values may be shown once.

Key:
SW900 human lung = experiment: in vitro cytotoxicity assay, SW900 human lung; assay type: cell-based; settings: concentration required to inhibit cell growth by 50%, four-fold serial dilution, replicate determinations on separate lines
Method: (§1) Representative compounds of the present invention were also evaluated in in vitro cytotoxicity assay against various murine and human tumor cell lines. The in vitro cytotoxicity assay involved growing various mammalian tumor cells, including human tumor cells, on microtitre plates employing established tissue culture methods. The concentration of each compound required to inhibit cell growth by 50% (IC50) was then determined by four-fold serial dilution technique. Tumor cells of the following types were employed for each compound tested: B16-F10 murine melanoma; Moser human colon; SW900 human lung; and two human colon tumor cell lines namely HCT-116, and HCT/VP35, the latter being resistant to etoposide (VP). […] The in vitro data may also be evaluated in terms of potency ratio which is defined as the ratio of IC50 against an etoposide-resistant cell-line to IC50 against an etoposide-sensitive cell-line.

B16-F10 murine melanoma = experiment: in vitro cytotoxicity assay, B16-F10 murine melanoma; assay type: cell-based; settings: concentration required to inhibit cell growth by 50%, four-fold serial dilution, replicate determinations on separate lines
Method: as §1

Moser human colon = experiment: in vitro cytotoxicity assay, Moser human colon; assay type: cell-based; settings: concentration required to inhibit cell growth by 50%, four-fold serial dilution, replicate determinations on separate lines
Method: as §1

HCT/VP35 = experiment: in vitro cytotoxicity assay, HCT/VP35 human colon tumor resistant to etoposide; assay type: cell-based; settings: etoposide-resistant line, concentration required to inhibit cell growth by 50%, four-fold serial dilution, replicate determinations on separate lines
Method: as §1

[1] = cited from earlier work
P388 leukemia = experiment: antitumor activity against intravenously implanted P388 leukemia in BDF1 female mice; assay type: in vivo, murine (BDF1 female mice); settings: 10^6 P388 cells i.v., etoposide i.p., 125 mg/kg/dose, 64 days
Method: Compound of Example 15 was evaluated against intravenously implanted P388 leukemia (10^6 cells) in BDF1 female mice. The test compound was administered intravenously at various dose levels to groups of six mice on days 5 and 8; the positive control, etoposide, was given intraperitoneally. The experiment lasted 64 days.

HCT-116 = experiment: in vitro cytotoxicity assay, HCT-116 human colon tumor; assay type: cell-based; settings: concentration required to inhibit cell growth by 50%, four-fold serial dilution, replicate determinations on separate lines
Method: as §1

## COc1cc([C@@H]2c3cc4c(cc3[C@@H](O[C@@H]3O[C@@H]5CO[C@@H](C)O[C@H]5[C@H](O)[C@H]3O)[C@H]3COC(=O)[C@H]23)OCO4)cc(OC)c1O [etoposide, reference compound]
SW900 human lung
  IC50 SW900: 201.94 µg/mL and 241.29 µg/mL and 243.49 µg/mL and > 500 µg/mL and 77.80 µg/mL and 54.59 µg/mL
SW900 human lung; listed as Etoposide
  IC50 SW900: 213.23 µg/mL and 241.88 µg/mL
B16-F10 murine melanoma
  IC50 B16-F10: 16.75 µg/mL and 19.47 µg/mL and 27.72 µg/mL and 30.38 µg/mL and 9.96 µg/mL and 5.80 µg/mL
B16-F10 murine melanoma; listed as Etoposide
  IC50 B16-F10: 19.36 µg/mL and 51.93 µg/mL and 62.19 µg/mL
Moser human colon
  IC50 Moser: 121.73 µg/mL and 163.19 µg/mL and 208.30 µg/mL and 209.76 µg/mL and 65.72 µg/mL and 54.09 µg/mL
Moser human colon; listed as Etoposide
  IC50 Moser: 94.51 µg/mL and 97.83 µg/mL and 116.41 µg/mL
HCT/VP35
  IC50 HCT/VP35: 122.79 µg/mL and 184.01 µg/mL and 98.33 µg/mL and 142.90 µg/mL and 79.06 µg/mL and 48.22 µg/mL
HCT/VP35; listed as Etoposide
  IC50 HCT/VP35: 16.31 µg/mL and 18.74 µg/mL and 140.63 µg/mL
[1]
  in vivo metabolism: extensively metabolized to the open ring hydroxy acid
P388 leukemia
  max. % T/C (positive control): > 753 % T/C
HCT-116
  IC50 HCT-116: 14.78 µg/mL and 20.54 µg/mL and 38.03 µg/mL and 41.01 µg/mL and 3.86 µg/mL and 6.57 µg/mL
HCT-116; listed as Etoposide
  IC50 HCT-116: 15.21 µg/mL and 30.12 µg/mL and 51.27 µg/mL
